Entries after “also recorded” stand apart in the source; their conditions may differ.
How the values were obtained:
endosome maturation = assay: Endosome maturation (LAMP1 positive vesicles) imaging; type: cell-based
U-2 OS cells = assay: Electron microscopy of compound treated cells; type: cell-based
DCN1-UBC12 interaction = DCN1-UBC12 interaction (Homo sapiens (Human), UniProt Q96GG9); assay: biochemical; type: binding; conditions: read-out: TR-FRET IC50
[1] = preliminary experiment
HCC95 cells = assay: Soft agar anchorage independent growth assay; type: cell-based; conditions: 10 μM
[2] = Seven day spermatogenesis study; type: in vivo; conditions: for Weight: oral gavage, B.I.D.; for Motility / Sperm Count / Viability (%): oral gavage B.I.D.
in vivo = conditions: for concentration at 3 day / concentration at 7 day / concentration at 24.4 h / concentration at […] / concentration at 1 h: male; for concentration at 3 day: Day 3; for concentration at 7 day: Day 7
HCC95 cancer cells = assay: Cullin neddylation in cancer cells (cell lysis and western blot); type: cell-based
Experimental: Cell pellets harvested from a 6 well dish were resuspended in 30-40 μL of lysis buffer (50 mM Tris, 150 mM NaCl, 0.5% NP-40, 0.1% SDS, 6.5 M Urea, 2 mM 1,10-orthophenanthroline, 1× Halt Protease and Phosphatase inhibitor cocktail (ThermoFisher), 0.25 kU Universal Nuclease (ThermoFisher), pH 7.5). Cell pellet suspensions were incubated on ice for 25 minutes with occasional mixing by pipetting up and down. Lysates were cleared by centrifugation at 13 K rpm for 20 minutes and the supernatant was removed as total cell lysate sample. Protein concentration of the cell lysate was determined by BCA assay (Pierce) using BSA as a control. Cell lysates were diluted into 2×SDS-PAGE sample buffer such that 25 μg of total protein was loaded per well. […] Primary antibodies were prepared in blocking buffer and incubated with membranes overnight at 4° C. with rocking. Membranes were extensively washed in 1×TBS, 0.1% Tween-20. Secondary antibodies were prepared in blocking buffer according to the manufactures recommendations and incubated with membranes for 1 hour at room temperature. After extensive washing the membranes were developed with SuperSignal West Pico Chemiluminescent substrate (ThermoFisher) and developed by film exposure (HyBlot CL, Denville scientific).

[3] = Plasma Concentration (μM), 50 mg/kg
[4] = Plasma Concentration (μM), 100 mg/kg
[5] = Plasma Concentration, Repeat Dose (0 and 7.5 hr)
[6] = Plasma Concentration, Single Dose (0 hr)
[7] = Testis Concentration (μM), 50 mg/kg
[8] = Testis Concentration (μM), 100 mg/kg
[9] = Testis Concentration, Repeat Dose (0 and 7.5 hr)
[10] = Testis Concentration, Single Dose (0 hr)

Chain of DCN1-UBC12 interaction (Q96GG9 60-248 limits assumed): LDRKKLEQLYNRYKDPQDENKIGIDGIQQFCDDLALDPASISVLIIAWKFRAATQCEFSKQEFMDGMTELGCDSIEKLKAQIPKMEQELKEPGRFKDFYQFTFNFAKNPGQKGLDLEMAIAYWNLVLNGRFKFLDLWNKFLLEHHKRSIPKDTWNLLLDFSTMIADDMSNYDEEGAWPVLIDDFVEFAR

Compound: CCCC(C)N1CCC(N(Cc2ccccc2)C(=O)Nc2cccc(C(F)(F)F)c2)CC1 (stereo not drawn) [A15, 1-Benzyl-1-(1-(Pentan-2-yl)Piperidin-4-yl)-3-(3-(Trifluoromethyl)Phenyl)Urea]
- effect on endosome maturation (endosome maturation; 10 μM on cells): affect endosome maturation
- vacuolar structures by electron microscopy (U-2 OS cells): presence of large vacuolar structures

Compound: CCCCN1CCC(N(Cc2ccc3c(c2)OCO3)C(=O)Nc2cc(F)cc(C(F)(F)F)c2)CC1 [A83]
- IC50 (DCN1-UBC12 interaction): 901 nM
- effect on endosome maturation (endosome maturation; 3 μM on cells): affect endosome maturation

Compound: CCCCN1CCC(N(Cc2ccccc2)C(=O)Nc2ccc(Cl)c(Cl)c2)CC1 [A7]
- maximum serum concentration [1]: 1.5 to 3 µM
- anchorage independent growth (HCC95 cells): inhibit the anchorage independent growth of HCC95 cells
- Weight ([2]; 50 mpk): 146.3 ± 27.7 mg
- Weight ([2]; 100 mpk): 150.1 ± 18.9 mg
- Motility ([2]; animal 50 mpk-1): Stationary
- Sperm Count ([2]; animal 50 mpk-1): Low
- Viability (%) ([2]; animal 50 mpk-1): <20%
- Motility ([2]; animal 50 mpk-2): Stationary
- Sperm Count ([2]; animal 50 mpk-2): Low
- Viability (%) ([2]; animal 50 mpk-2): 0%
- Motility ([2]; animal 50 mpk-3): Good, erratic
- Sperm Count ([2]; animal 50 mpk-3): Normal
- Viability (%) ([2]; animal 50 mpk-3): >50%
- Motility ([2]; animal 100 mpk-1): No movement
- Sperm Count ([2]; animal 100 mpk-1): Low
- Viability (%) ([2]; animal 100 mpk-1): <10%
- Motility ([2]; animal 100 mpk-2): Erratic
- Sperm Count ([2]; animal 100 mpk-2): Low
- Viability (%) ([2]; animal 100 mpk-2): <5%
- Motility ([2]; animal 100 mpk-3): Limited
- Sperm Count ([2]; animal 100 mpk-3): Low
- Viability (%) ([2]; animal 100 mpk-3): <10%
- half-life (in vivo): 4 to 5 h
- concentration at 3 day (in vivo; [3]): 2.7 ± 2.4 µM
- concentration at 7 day (in vivo; [3]): 1.7 ± 1.2 µM
- concentration at 3 day (in vivo; [4]): 2.4 ± 1.2 µM
- concentration at 7 day (in vivo; [4]): 1.4 ± 0.6 µM
- concentration at 24.4 h (in vivo; [5]): 0.62 ± 0.16 µM
- concentration at […] (in vivo; [5]): 4.8 ± 1.3 µM
- concentration at 1 h (in vivo; [6]): 3.7 ± 0.95 µM
- concentration at 24.4 h (in vivo; [6]): 0.47 ± 0.32 µM
- concentration at 3 day (in vivo; [7]): 11.6 ± 3.4 µM
- concentration at 7 day (in vivo; [7]): 8.25 ± 4.1 µM
- concentration at 3 day (in vivo; [8]): 25.9 ± 11.1 µM
- concentration at 7 day (in vivo; [8]): 31.2 ± 12.8 µM
- concentration at 24.4 h (in vivo; [9]): 6.2 ± 5.3 µM
- concentration at […] (in vivo; [9]): 16.7 ± 3.1 µM
- concentration at 1 h (in vivo; [10]): 2.1 ± 0.74 µM
- concentration at 24.4 h (in vivo; [10]): 4.4 ± 3.3 µM
- vacuolar structures by electron microscopy (U-2 OS cells): presence of large vacuolar structures
- levels of neddylated Cullins / cullin neddylation (HCC95 cancer cells): reduce the levels of neddylated Cullins; also recorded: selectively inhibit cullin neddylation

Compound: C=CC(=O)Nc1cccc(CN(C(=O)Nc2cccc(C(F)(F)F)c2)C2CCN(C(C)CCC)CC2)c1 (stereo not drawn) [A18]
- IC50 (DCN1-UBC12 interaction): 111 nM
- anchorage independent growth (HCC95 cells): inhibit the anchorage independent growth of HCC95 cells
- levels of neddylated Cullins / cullin neddylation (HCC95 cancer cells): reduce the levels of neddylated Cullins; also recorded: selectively inhibit cullin neddylation
